Measured values taken from patent US8722910B2, “Diyne compositions” (Evolva AG, priority 2009, dated 2014).
In brackets after ≈: the same amount, converted by molar mass. Several values for one entry are separate records, joined by “and”; a condition that tells them apart may be missing. Identical values can stand only once.

Legend:
T. mentagrophytes = assay: In vitro antifungal activity vs. dermatophytes (MIC/MFC); format: cell-based; conditions: T. mentagrophytes (n = 15)
Epidermophyton floccosum = assay: as above; format: cell-based; conditions: Epidermophyton floccosum (n = 15)
T. terrestre = assay: as above; format: cell-based; conditions: T. terrestre (n = 1)
C. lipolytica = assay: In vitro antifungal activity vs. yeasts (MIC/MFC); format: cell-based; conditions: Yarrowia lipolytica, C. lipolytica (n = 1)
all dermatophyte strains = assay: MIC and MFC range over all dermatophyte strains tested; format: cell-based, dermatophytes; conditions: Table 14 strains
[1] = tested on: Enterobacter faecalis 29212; assay: In vitro Antibacterial Activity; format: cell-based
[2] = In vitro Mammalian Cell Cytotoxicity; format: cell-based; conditions: African green monkey, Vero cells
C. albicans spores = assay: Effect on the germination of C. albicans (MTT); format: cell-based; conditions: drug added after 3 hours
B. dermatitidis = assay: Susceptibility of clinical dimorphic fungi (MIC); format: cell-based; conditions: B. dermatitidis (n = 30)
CYP1A = assay: Inhibition of cytochrome P450 enzymes; format: in vitro ADME; conditions: human, probe ethoxyresorufin; substrate ethoxyresorufin
Description: (§1) Peak areas corresponding to the metabolite of each substrate were recorded. The percent of control activity was then calculated by comparing the peak area obtained in the presence of the diyne potassium salt and in the absence.

CYP3A = assay: Inhibition of cytochrome P450 enzymes; format: in vitro ADME; conditions: human
Description: as §1

Cytochrome P450 1A = assay: Inhibition of cytochrome P450 enzymes; format: in vitro ADME; conditions: substrate ethoxyresorufin; 10 μM
Description: as §1

Cytochrome P450 2B6 = Cytochrome P450 2B6 (Homo sapiens, UniProt P20813); assay: Inhibition of cytochrome P450 enzymes; format: in vitro ADME; conditions: substrate bupropion
Description: as §1

Cytochrome P450 2C19 = Cytochrome P450 2C19 (Homo sapiens, UniProt P33261); assay: Inhibition of cytochrome P450 enzymes; format: in vitro ADME; conditions: substrate omeprazole
Description: as §1

Cytochrome P450 2C8 = Cytochrome P450 2C8 (Homo sapiens, UniProt P10632); assay: Inhibition of cytochrome P450 enzymes; format: in vitro ADME; conditions: substrate paclitaxel
Description: as §1

Cytochrome P450 2C9 = Cytochrome P450 2C9 (Homo sapiens, UniProt P11712); assay: Inhibition of cytochrome P450 enzymes; format: in vitro ADME; conditions: substrate diclofenac
Description: as §1

Cytochrome P450 2D6 = Cytochrome P450 2D6 (Homo sapiens, UniProt P10635); assay: Inhibition of cytochrome P450 enzymes; format: in vitro ADME; conditions: substrate dextromethorphan
Description: as §1

Cytochrome P450 3A = assay: Inhibition of cytochrome P450 enzymes; format: in vitro ADME; conditions: 10 μM
Description: as §1

S. cerevisiae = assay: Doubling times of S. cerevisiae; format: cell-based
Description: S. cerevisiae was cultured in the presence of 1 and 10 μg/ml of the potassium salt, 10 μg/ml oleic acid and 1 μg/ml of the potassium salt combined with 10 μg/ml oleic acid.
When S. cerevisiae was cultured in the presence of 1 and 10 μg/ml compound IV″, the doubling times increased to 2.4 h and 4.2 h, respectively, compared to 2 h for the untreated control. The addition of 10 μg/ml oleic acid, sodium salt, to 1 μg/ml compound IV″ reversed the doubling time to 2 h as observed for the untreated control or 10 μg/ml oleic acid, sodium salt alone.

OLE1 = OLE1 expression by real time PCR; format: cell-based, S. cerevisiae
Description: The expression of OLE1 was determined by real time PCR 10, 60, 120 and 240 min after compound addition (Knechtle, P. and Greve, K., 2009). OLE1 transcript levels were calibrated to the expression of the tubulin gene (TUB1) and normalized to the OLE1 expression at 10 min without compound addition (FIG. 17(a)).
The expression of the OLE1 gene was determined by real time PCR 10, 60, 120 and 240 min for the conditions a.-e., as indicated in Table 3 above. OLE1 transcript levels were calibrated to the expression of the tubulin gene (TUB1) and normalized to the OLE1 expression at 10 min without compound addition. See FIG. 17a showing time dependent expressions of OLE1 in response to compound IV″. Conditions a.-e. are listed in Table 3 above, numbers indicate time intervals in minutes. Expressions of OLE1 are given as multiples of the expression at 10 min, condition a. […] 10 μg/ml oleic acid compensated for the OLE1 expression increase caused by 1 μg/ml compound IV alone. Compound IV″ dependent up-regulation of OLE1 expression thus confirms that compound IV″ is acting as an inhibitor of the Ole1 protein. The antagonistic effect of oleic acid found in the susceptibility assays, is reflected mechanistically in this experiment by a down-regulation of the target Ole1 protein through oleic acid.

Aspergillus fumigatus = assay: Growth inhibition alone and combined with Amphotericin B (visual); format: cell-based
Description: (§2) Potassium (Z)-14-(furan-2-yl)tetradeca-9-en-11,13-diynoate was tested against Aspergillus fumigatus and various Candida species alone to determine antifungal activity and in various combinations with Amphotericin B to determine if any synergistic or antagonistic interactions may occur.
(§3) Amphotericin B and potassium (Z)-14-(furan-2-yl)tetradeca-9-en-11,13-diynoate were added to an in vitro culture of different fungi in various concentrations and the culture was visually inspected. If there is inhibition of growth the culture will remain optically clear, whereas growth results in a hazy culture. The results are shown in FIG. 5, where 0 means optically clear (i.e. no growth), 1 means slightly hazy, 2 means prominent decrease (at least 50%) in visible growth, 3 means slight reduction in visible growth and 4 means no reduction in visible growth.

Candida albicans = assay: as above; format: cell-based; conditions: 2 μg/ml and lower
Description: as §2, §3

Chain of Cytochrome P450 2C9 (P11712 whole entry): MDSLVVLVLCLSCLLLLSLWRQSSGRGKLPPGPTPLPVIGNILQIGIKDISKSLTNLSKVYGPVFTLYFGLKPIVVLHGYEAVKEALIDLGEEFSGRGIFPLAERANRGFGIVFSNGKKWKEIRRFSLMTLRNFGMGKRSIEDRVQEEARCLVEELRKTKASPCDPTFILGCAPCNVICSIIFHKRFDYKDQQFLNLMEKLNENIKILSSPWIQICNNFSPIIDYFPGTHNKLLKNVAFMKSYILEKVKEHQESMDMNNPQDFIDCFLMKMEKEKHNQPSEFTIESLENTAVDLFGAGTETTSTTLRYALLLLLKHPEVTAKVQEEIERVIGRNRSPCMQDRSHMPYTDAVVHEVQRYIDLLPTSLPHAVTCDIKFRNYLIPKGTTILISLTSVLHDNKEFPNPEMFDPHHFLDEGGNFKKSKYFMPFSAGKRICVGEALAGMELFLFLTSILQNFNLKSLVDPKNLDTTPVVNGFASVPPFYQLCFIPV
Chain of Cytochrome P450 2C19 (P33261 whole entry): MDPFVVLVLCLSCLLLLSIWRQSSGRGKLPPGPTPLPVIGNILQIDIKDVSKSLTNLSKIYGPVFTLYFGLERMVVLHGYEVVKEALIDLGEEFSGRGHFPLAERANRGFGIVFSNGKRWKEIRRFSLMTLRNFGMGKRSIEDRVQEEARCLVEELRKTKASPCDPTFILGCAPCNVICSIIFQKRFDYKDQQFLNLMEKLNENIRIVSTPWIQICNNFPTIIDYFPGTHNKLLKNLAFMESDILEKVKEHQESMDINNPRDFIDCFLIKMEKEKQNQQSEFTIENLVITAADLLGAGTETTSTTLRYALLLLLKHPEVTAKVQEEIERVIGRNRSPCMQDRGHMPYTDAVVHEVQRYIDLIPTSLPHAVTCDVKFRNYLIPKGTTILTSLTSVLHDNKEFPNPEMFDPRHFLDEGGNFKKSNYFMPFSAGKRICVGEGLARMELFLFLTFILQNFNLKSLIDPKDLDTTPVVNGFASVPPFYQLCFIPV
Chain of Cytochrome P450 2D6 (P10635 whole entry): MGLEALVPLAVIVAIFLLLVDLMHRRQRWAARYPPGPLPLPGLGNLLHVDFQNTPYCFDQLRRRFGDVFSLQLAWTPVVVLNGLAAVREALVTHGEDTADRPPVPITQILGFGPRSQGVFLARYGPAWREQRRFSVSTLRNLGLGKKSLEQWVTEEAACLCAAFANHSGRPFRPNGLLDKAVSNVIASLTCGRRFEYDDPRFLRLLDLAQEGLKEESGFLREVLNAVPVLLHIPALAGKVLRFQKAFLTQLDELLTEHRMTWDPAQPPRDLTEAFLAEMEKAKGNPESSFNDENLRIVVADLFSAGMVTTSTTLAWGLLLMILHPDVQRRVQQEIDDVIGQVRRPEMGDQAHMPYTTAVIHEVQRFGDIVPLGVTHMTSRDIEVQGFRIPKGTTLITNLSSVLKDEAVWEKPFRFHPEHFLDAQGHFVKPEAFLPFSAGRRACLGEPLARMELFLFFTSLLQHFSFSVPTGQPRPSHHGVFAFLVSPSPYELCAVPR
Chain of Cytochrome P450 2B6 (P20813 whole entry): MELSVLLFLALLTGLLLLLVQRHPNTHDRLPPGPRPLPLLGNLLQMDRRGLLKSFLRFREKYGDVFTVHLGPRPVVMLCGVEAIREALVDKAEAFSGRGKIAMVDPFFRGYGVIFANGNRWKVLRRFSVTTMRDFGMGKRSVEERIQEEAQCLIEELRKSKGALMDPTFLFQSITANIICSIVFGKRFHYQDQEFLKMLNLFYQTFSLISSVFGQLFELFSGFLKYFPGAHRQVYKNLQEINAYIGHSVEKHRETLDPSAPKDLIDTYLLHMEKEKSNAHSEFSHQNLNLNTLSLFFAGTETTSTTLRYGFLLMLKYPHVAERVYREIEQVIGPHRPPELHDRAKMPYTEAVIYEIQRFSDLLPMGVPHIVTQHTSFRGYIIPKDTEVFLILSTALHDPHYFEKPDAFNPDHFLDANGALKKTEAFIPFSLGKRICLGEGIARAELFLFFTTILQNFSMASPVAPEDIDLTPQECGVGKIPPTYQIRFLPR
Chain of Cytochrome P450 2C8 (P10632 whole entry): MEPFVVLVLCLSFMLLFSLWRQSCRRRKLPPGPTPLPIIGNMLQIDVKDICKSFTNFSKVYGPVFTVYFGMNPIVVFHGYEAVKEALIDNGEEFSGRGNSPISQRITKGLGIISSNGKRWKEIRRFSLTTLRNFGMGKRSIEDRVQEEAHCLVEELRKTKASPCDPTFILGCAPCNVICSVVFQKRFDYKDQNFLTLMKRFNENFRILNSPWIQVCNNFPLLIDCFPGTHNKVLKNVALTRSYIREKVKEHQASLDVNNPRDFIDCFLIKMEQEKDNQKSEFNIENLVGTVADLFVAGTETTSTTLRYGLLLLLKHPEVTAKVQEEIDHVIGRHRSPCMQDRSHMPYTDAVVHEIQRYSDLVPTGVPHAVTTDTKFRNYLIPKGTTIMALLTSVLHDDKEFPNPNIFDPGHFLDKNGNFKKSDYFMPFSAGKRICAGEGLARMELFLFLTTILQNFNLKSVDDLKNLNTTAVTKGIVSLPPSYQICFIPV

SMILES: O=C(O)CCCCCCC/C=C\C#CC#Cc1ccco1 [Compound III″]
- MIC90/MIC range 48 h (T. mentagrophytes; MIC90, 48 h): <0.06 ng/mL
- MIC (T. mentagrophytes; Trichophyton mentagrophytes, 96 h, 35° C., 4 days): < 0.06 ng/mL
- MFC (T. mentagrophytes; Trichophyton mentagrophytes): 0.1 ng/mL (≈ 0.352 nM)
- MIC (Epidermophyton floccosum; 96 h, 35° C., 4 days): < 0.06 ng/mL
- MFC (Epidermophyton floccosum): 15 ng/mL (≈ 52.8 nM)
- MIC90/MIC range 48 h (Epidermophyton floccosum; MIC90, 48 h): <0.06 ng/mL
- MIC (T. terrestre; 96 h, 35° C., 4 days): < 0.06 ng/mL
- MFC (T. terrestre): 16000 ng/mL (≈ 56300 nM)
- MIC90/MIC range 48 h (T. terrestre; 48 h): <0.06 ng/mL
- MFC (C. lipolytica): < 0.06 ng/mL
- MIC (C. lipolytica; 90% inhibition endpoint, read-out: MIC): < 0.06 ng/mL
- MFC range against dermatophytes (all dermatophyte strains): <0.06 to 16000 ng/mL
- MIC range against all dermatophyte strains (all dermatophyte strains): <0.06 to 1000 ng/mL
- MIC90 [1]: 12500 ng/mL (≈ 44000 nM)
- CC50 [2]: 46000 ng/mL (≈ 162000 nM)
- growth of spores germinated in the absence of drug (C. albicans spores): effectively inhibited the subsequent growth of spores

SMILES: O=C([O-])CCCCCCC/C=C\C#CC#Cc1ccco1.[K+] [Compound IV″, potassium (Z)-14-(furan-2-yl)tetradeca-9-en-11,13-diynoate]
- MIC90/MIC range 48 h (B. dermatitidis; MIC90, 48 h): 30 ng/mL
- MIC90 (B. dermatitidis; Blastomyces dermatitidis, CLSI M38-A2, 50% growth reduction, MIC read at 96 h): 30 ng/mL
- IC50 (CYP1A): 59 µM
- IC50 (CYP3A; probe midazolam, substrate midazolam): 45 µM
- IC50 (CYP3A; probe testosterone, substrate testosterone): 57 µM
- % control at 10 μM (Cytochrome P450 1A): 92%
- IC50 (Cytochrome P450 2B6): 24 µM
- % control at 10 μM (Cytochrome P450 2B6; 10 μM): 82%
- IC50 (Cytochrome P450 2C19): 32 µM
- % control at 10 μM (Cytochrome P450 2C19; 10 μM): 84%
- IC50 (Cytochrome P450 2C8): > 100 µM
- % control at 10 μM (Cytochrome P450 2C8; 10 μM): 84%
- IC50 (Cytochrome P450 2C9): 18 µM
- % control at 10 μM (Cytochrome P450 2C9; 10 μM): 74%
- IC50 (Cytochrome P450 2D6): > 100 µM
- % control at 10 μM (Cytochrome P450 2D6; 10 μM): 88%
- % control at 10 μM (Cytochrome P450 3A; substrate midazolam): 85%
- % control at 10 μM (Cytochrome P450 3A; substrate testosterone): 90%
- Doubling time (S. cerevisiae; 1 μg/ml): 2.4 h
- Doubling time (S. cerevisiae; 1 μg/ml combined with 10 μg/ml oleic acid): 2 h and 2.1 h
- Doubling time (S. cerevisiae; 10 μg/ml): 4.2 h
- increase of the expression level of OLE1 (OLE1; 1 μg/ml, 10-240 min): 3-5 fold
- increase of the expression level of OLE1 (OLE1; 1 μg/ml, at 120 min): 4.9 fold
- increase of the expression level of OLE1 (OLE1; 10 μg/ml, 10-240 min): 7-19 fold
- increase of the expression level of OLE1 (OLE1; 10 μg/ml, at 120 min): 18.7 fold
- interaction with Amphotericin B (Aspergillus fumigatus): Synergism was observed
- inhibition of growth (Candida albicans): clearly inhibits growth
